According to BindingDB's records for doi:10.1007/s00210-004-0951-4 (Vernalis Research, 2004):
Where “and” joins values, the source holds several entries; their conditions need not be identical. Identical values can stand only once. Counter-ions that a name gives are not always drawn.

Tests used:
[1] = target: 5-hydroxytryptamine receptor 2B (Homo sapiens, UniProt P41595)
[2] = target: T1, 5-hydroxytryptamine receptor 2C (Homo sapiens, UniProt P28335)
T1 sequence (P28335 whole entry): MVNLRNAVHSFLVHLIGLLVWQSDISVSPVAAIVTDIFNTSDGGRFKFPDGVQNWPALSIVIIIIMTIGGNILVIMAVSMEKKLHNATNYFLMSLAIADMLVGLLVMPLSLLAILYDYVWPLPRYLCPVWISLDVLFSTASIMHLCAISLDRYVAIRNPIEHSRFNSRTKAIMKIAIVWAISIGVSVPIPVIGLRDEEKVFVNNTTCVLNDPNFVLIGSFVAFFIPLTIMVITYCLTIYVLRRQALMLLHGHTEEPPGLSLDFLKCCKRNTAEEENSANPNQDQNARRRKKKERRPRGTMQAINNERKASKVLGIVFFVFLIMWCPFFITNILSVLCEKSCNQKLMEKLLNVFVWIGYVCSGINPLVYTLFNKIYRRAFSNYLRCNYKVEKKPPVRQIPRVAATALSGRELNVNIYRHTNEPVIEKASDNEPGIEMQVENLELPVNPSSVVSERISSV

Chain of 5-hydroxytryptamine receptor 2B (P41595 whole entry): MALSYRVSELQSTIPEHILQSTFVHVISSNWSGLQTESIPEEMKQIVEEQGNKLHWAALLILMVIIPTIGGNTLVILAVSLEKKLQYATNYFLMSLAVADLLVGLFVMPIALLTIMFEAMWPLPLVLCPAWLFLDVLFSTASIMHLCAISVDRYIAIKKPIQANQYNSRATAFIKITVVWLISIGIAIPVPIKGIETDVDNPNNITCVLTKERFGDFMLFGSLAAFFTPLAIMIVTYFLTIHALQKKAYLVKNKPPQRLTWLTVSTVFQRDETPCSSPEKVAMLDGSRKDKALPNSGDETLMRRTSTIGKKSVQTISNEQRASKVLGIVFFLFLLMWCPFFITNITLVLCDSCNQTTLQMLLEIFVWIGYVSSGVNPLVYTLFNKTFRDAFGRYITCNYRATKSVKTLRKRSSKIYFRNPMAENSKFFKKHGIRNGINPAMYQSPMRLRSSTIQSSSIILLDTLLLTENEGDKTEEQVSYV

`CCCN(CCC)C1CCc2cccc(O)c2C1` (stereo not drawn) was tested, and the Ki [1] was 4070 nM.

Compound `Cc1nc2sccn2c(=O)c1CCN1CCC(=C(c2ccc(F)cc2)c2ccc(F)cc2)CC1` has a Ki [2] of 6.61 nM and a Ki [1] of 2.14 nM.

Work on `CC[C@@H](CO)NC(=O)[C@@H]1C=C2c3cccc4c3c(cn4C)C[C@H]2N(C)C1` yielded a Ki [2] of 4.47 nM.

`Cn1ccc2cc3c(cc21)CCN3C(=O)Nc1cccnc1` showed a Ki [1] of 22.4 nM.

`CSc1cc2c(cc1C(F)(F)F)N(C(=O)Nc1cccnc1)CC2` was tested, and the Ki [2] was 2.19 nM and the Ki [1] was 2.45 nM.

`C[C@H](N)CN1CCc2ccc(Br)cc21` showed a Ki [2] of 5.62 nM and a Ki [1] of 30.2 nM.

In the case of `NCCc1c[nH]c2ccccc12` [1H-indole-3-ethanamine], the Ki [2] is reported as 2340 nM and the Ki [1] is reported as 102 nM.

`COc1cc(CC(C)N)c(OC)cc1Br` (stereo not drawn) [2-(4-Bromo-2,5-dimethoxy-phenyl)-1-methyl-ethylamine((-)-DOB)] gave a Ki [1] of 43.6 nM.

`FC(F)(F)c1ccc(N2CCNCC2)nc1Cl` [2-Chloro-3-(trifluoromethyl)-6-(1-piperazinyl)pyridine] gave a Ki [2] of 14.8 nM and a Ki [1] of 91.2 nM.

`c1ccc2nc(N3CCNCC3)ccc2c1` [2-Piperazin-1-yl-quinoline (Quipazine)] was tested, and the Ki [2] was 53.7 nM and the Ki [1] was 85.1 nM.

With `Cc1nc(-c2ccc(-c3ccc(C(=O)N4CCc5cc6c(cc54)C4(CCN(C)CC4)CO6)cc3)c(C)c2)no1` [4-[2-methyl-4-(5-methyl-1,2,4-oxadiazol-3-yl)phenyl]phenyl-1'-methylspiro[3,5,6,7-tetrahydro-2H-furo[2,3-f]indole-3,4'-(hexahydropyridine)]-5-ylmethanone] the Ki [2] was 2000 nM and the Ki [1] was 1350 nM.

With `Cn1cc(CCN)c2cc(O)ccc21` [5-HT,omega-N-Me] the Ki [2] was 2.69 nM and the Ki [1] was 6.92 nM.

Compound `O=C(CCCN1CCC2(CC1)C(=O)NCN2c1ccccc1)c1ccc(F)cc1` [8-[4-(4-fluorophenyl)-4-oxidanylidene-butyl]-1-phenyl-1,3,8-triazaspiro[4.5]decan-4-one] has a Ki [2] of 603 nM.

`CN1CC(C(=O)NC2(C)OC3(O)C4CCCN4C(=O)C(Cc4ccccc4)N3C2=O)C=C2c3cccc4[nH]cc(c34)CC21` (stereo not drawn) [CAS_113-15-5] showed a Ki [2] of 1.91 nM and a Ki [1] of 1.29 nM.

`CN1CC(NS(=O)(=O)N(C)C)CC2c3cccc4c3c(cn4C)CC21` (stereo not drawn) [CAS_64795-35-3] gave a Ki [1] of 3.47 nM.

`CC(C)CC(N(C)C)C1(c2ccc(Cl)cc2)CCC1` (stereo not drawn) [CAS_106650-56-0] was tested, and the Ki [2] was greater than 10000 nM.

In the case of `CN1CCN(c2nc3cc(C(F)(F)F)ccc3n3cccc23)CC1` [CAS_109028-10-6], the Ki [1] is reported as 871 nM.

With `Cc1cc2c(cc1Cl)N(C(=O)Nc1ccc(Oc3cccnc3C)nc1)CC2` [CAS_181632-25-7] the Ki [2] was 7.08 nM and the Ki [1] was 145 nM.

With `Cc1cc(NC(=O)Nc2ccc3c(ccn3C)c2)sn1` [CAS_3277600] the Ki [1] was 126 nM.

With `Clc1cncc(N2CCNCC2)n1` [L-630,571] the Ki [2] was 97.7 nM and the Ki [1] was 617 nM.

For `OC(c1ccccc1)C1CCN(CCc2ccccc2)CC1` (stereo not drawn) [MDL-11939], the Ki [2] was 263 nM and the Ki [1] was 3310 nM.

`COc1cc(OC)c(C(=O)CCCCN2CCC3(CC2)NC(=O)NC3=O)cc1NS(=O)(=O)c1ccc(C(F)(F)F)cc1` [N-[5-[5-(2,4-Dioxo-1,3,8-triazaspiro[4.5]decan-8-yl)-1-oxopentyl]-2,4-dimethoxyphenyl]-4-(trifluoromethyl)benzenesulfonamide] showed a Ki [2] of 5.01 nM and a Ki [1] of 2880 nM.

Work on `CCC(CO)NC(=O)C1C=C2c3cccc4[nH]cc(c34)CC2N(C)C1` (stereo not drawn) [NSC_8226] yielded a Ki [2] of 4.57 nM and a Ki [1] of 0.46 nM.

Work on `CCCN1CCCC2Cc3[nH]ncc3CC21` (stereo not drawn) [NSC_55397] yielded a Ki [2] of 3310 nM and a Ki [1] of 302 nM.

`O=C1NCN(c2ccccc2)C12CCN(CCCOc1ccc(F)cc1)CC2` [NSC_77445] gave a Ki [2] of 1550 nM.

For `CC(C)CC(N)C1(c2ccc(Cl)cc2)CCC1` (stereo not drawn) [NSC_134771], the Ki [2] was greater than 10000 nM and the Ki [1] was greater than 10000 nM.

Compound `CC(N)Cn1ccc2cc(F)c(Cl)cc21` (stereo not drawn) [NSC_3045226] has a Ki [2] of 6.03 nM and a Ki [1] of 5.37 nM.

For `CC(N)Cc1c[nH]c2ccc(OCc3cccs3)cc12` (stereo not drawn) [NSC_5311036], the Ki [2] was 77.6 nM.

Work on `C[C@H](N)Cc1cccc(C(F)(F)F)c1` [Norfenfluramine (+)] yielded a Ki [2] of 51.3 nM and a Ki [1] of 100 nM.

`COc1ccc2c(c1O[C@H]1CCNC1)CCC2` [ORG-37684] showed a Ki [2] of 7.59 nM and a Ki [1] of 42.7 nM.

With `CC(C)c1cc(-c2ccc(F)c3ccccc23)nc(N)n1` [RS-127445] the Ki [2] was 468 nM and the Ki [1] was 1.07 nM.

`CN1CC[C@@H]2CN3CCc4cccc(c43)[C@@H]2C1` [SDZ SER 082 FUMARATE] gave a Ki [2] of 7.59 nM and a Ki [1] of 204 nM.

`FC(F)(F)c1cccc(N2CCNCC2)c1` [TFMPP] showed a Ki [1] of 58.9 nM.

Compound `NCCc1c[nH]c2ccc(C(N)=O)cc12` [[3H]-5-carboxamidotryptamine] has a Ki [1] of 186 nM.

With `COc1cc(CC(C)N)c(OC)cc1I` (stereo not drawn) [[125I]2,5-dimethoxy-4-iodoamphetamine] the Ki [2] was 8.32 nM and 5.37 nM and the Ki [1] was 28.2 nM and 53.7 nM.

`CSc1ccc2c(c1)C(N1CCN(C)CC1)Cc1ccccc1S2` (stereo not drawn) [methanesulfonic acid;1-methyl-4-(3-methylsulfanyl-5,6-dihydrobenzo[b][1]benzothiepin-5-yl)piperazine] was tested, and the Ki [2] was 4.47 nM.
